Experimental findings from US6358947B1 (American Home Products Corporation, priority 1999, dated 2002) are described below.

Where only a bound is given, the exact number is not on record here.

Common to all, as to format: cell-based
One test concerns the target T1, hMR (Homo sapiens, UniProt P08235).
T1 sequence (P08235 1-984): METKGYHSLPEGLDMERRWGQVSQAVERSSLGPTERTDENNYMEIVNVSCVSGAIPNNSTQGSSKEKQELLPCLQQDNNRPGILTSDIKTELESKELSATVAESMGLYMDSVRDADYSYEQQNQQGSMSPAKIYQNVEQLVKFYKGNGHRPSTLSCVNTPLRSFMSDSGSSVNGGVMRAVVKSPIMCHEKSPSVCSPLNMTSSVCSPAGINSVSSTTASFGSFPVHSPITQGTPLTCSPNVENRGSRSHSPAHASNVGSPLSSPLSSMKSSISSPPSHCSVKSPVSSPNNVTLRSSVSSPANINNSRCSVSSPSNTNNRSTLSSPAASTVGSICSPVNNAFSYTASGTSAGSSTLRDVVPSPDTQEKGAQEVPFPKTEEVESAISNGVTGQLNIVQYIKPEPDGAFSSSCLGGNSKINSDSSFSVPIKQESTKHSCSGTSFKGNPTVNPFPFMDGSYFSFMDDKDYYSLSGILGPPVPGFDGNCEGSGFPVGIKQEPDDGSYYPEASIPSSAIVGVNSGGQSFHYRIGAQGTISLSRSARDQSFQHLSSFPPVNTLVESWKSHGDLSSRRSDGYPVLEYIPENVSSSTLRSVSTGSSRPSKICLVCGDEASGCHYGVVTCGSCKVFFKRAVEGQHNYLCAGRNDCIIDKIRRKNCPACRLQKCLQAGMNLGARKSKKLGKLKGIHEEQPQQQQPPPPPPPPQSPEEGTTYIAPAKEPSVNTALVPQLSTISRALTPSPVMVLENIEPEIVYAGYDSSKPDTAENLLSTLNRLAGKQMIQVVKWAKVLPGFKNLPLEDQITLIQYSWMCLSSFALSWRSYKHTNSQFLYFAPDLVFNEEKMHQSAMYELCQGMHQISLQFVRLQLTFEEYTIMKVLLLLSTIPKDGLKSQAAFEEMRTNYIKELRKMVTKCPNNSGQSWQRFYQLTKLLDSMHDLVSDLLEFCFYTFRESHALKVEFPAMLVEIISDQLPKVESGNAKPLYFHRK
The test is described as follows: Cotransfection assay, MR antagonist. To be noted: read-out: MR Potency Antag.

Test [1] deals with T2, hER (Homo sapiens, UniProt P03372).
T2 sequence (P03372 1-595): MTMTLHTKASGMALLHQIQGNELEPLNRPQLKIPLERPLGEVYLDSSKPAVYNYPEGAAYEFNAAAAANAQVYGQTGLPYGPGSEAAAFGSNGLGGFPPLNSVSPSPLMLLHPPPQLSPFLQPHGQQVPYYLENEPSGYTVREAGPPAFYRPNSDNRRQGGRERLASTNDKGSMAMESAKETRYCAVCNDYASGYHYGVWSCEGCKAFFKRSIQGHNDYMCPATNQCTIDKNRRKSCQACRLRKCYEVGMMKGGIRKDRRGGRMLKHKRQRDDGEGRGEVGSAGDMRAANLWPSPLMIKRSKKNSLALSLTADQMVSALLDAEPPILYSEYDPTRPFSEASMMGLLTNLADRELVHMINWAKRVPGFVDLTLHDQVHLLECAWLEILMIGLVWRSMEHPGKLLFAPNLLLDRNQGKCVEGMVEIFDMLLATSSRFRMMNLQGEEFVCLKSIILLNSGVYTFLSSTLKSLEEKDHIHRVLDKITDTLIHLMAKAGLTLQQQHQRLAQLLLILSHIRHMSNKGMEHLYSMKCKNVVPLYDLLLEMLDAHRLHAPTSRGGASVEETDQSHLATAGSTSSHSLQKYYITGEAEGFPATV
The test is described as follows: Cotransfection assay, ER agonist. As to conditions: read-out: ER Potency Agon.
Description: (§1) The cotransfection assay provides a method for identifying functional agonists and partial agonists that mimic, or antagonists that inhibit, the effect of native hormones, and for quantifying their activity for responsive intracellular receptor (IR) proteins. In this regard, the cotransfection assay mimics an in vivo system in the laboratory. Importantly, activity in the cotransfection assay correlates very well with known in vivo activity, such that the cotransfection assay functions as a qualitative and quantitative predictor of a tested compound's in vivo pharmacology.
(§2) In the cotransfection assay, a cloned cDNA for an IR (e.g., human PR, AR or GR) under the control of a constitutive promoter (e.g., the SV 40 promoter) is introduced by transfection (a procedure to induce cells to take up foreign genes) into a background cell substantially devoid of endogenous IRs. This introduced gene directs the recipient cells to make the IR protein of interest. A second gene is also introduced (cotransfected) into the same cells in conjunction with the IR gene. This second gene, comprising the cDNA for a reporter protein, such as firefly luciferase (LUC), is controlled by an appropriate hormone responsive promoter containing a hormone response element (HRE). This reporter plasmid functions as a reporter for the transcription-modulating activity of the target IR. Thus, the reporter acts as a surrogate for the products (mRNA, then protein) normally expressed by a gene under control of the target receptor and its native hormone.
(§3) The cotransfection assay can detect small molecule agonists or antagonists of target IRs. Exposing the transfected cells to an agonist ligand compound increases reporter activity in the transfected cells. This activity can be conveniently measured, e.g., by increasing luciferase production, which reflects compound-dependent, IR-mediated increases in reporter transcription. […] Increasing concentrations of a suspected antagonist will decrease the reporter signal (e.g., luciferase production). The cotransfection assay is therefore useful to detect both agonists and antagonists of specific IRs. Furthermore, it determines not only whether a compound interacts with a particular IR, but whether this interaction mimics (agonizes) or blocks (antagonizes) the effects of the native regulatory molecules on target gene expression, as well as the specificity and strength of this interaction.

Test [2] concerns the target T2, hER. The test is described as follows: Cotransfection assay, ER antagonist. To be noted: read-out: ER Potency Antag.
Description: as §1, §2, §3
Test [3] deals with T3, human PR (Homo sapiens, UniProt P06401).
T3 sequence (P06401 1-933): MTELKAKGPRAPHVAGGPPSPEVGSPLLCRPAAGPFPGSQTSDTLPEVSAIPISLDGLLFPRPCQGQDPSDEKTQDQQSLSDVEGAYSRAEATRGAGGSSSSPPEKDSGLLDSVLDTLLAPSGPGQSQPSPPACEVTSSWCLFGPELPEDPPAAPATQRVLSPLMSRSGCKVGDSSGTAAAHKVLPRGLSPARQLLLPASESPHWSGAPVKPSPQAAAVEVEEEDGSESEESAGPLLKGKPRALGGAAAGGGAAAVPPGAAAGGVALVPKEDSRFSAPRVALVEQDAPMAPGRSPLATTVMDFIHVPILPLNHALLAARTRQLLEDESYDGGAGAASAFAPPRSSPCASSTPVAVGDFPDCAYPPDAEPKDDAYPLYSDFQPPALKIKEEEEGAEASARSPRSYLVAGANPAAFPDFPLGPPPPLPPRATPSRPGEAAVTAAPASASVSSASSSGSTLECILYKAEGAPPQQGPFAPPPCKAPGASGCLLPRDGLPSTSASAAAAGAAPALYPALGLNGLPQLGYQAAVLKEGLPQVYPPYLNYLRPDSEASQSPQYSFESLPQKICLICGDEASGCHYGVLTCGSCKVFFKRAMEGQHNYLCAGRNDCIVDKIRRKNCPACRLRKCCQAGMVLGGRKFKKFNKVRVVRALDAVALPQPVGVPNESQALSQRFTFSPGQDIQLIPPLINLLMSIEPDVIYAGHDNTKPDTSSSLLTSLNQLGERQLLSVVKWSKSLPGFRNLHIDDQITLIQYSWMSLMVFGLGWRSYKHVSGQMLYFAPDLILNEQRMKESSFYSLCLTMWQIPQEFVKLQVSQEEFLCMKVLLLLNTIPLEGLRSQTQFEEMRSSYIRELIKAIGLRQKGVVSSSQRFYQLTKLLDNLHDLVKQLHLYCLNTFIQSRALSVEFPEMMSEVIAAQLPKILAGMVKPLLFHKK
Description: Cotransfection assay, PR agonist, CV-1 cells.
Description: as §1, §2, §3

The next test has as its target T4, hGR (Homo sapiens, UniProt P04150).
T4 sequence (P04150 1-777): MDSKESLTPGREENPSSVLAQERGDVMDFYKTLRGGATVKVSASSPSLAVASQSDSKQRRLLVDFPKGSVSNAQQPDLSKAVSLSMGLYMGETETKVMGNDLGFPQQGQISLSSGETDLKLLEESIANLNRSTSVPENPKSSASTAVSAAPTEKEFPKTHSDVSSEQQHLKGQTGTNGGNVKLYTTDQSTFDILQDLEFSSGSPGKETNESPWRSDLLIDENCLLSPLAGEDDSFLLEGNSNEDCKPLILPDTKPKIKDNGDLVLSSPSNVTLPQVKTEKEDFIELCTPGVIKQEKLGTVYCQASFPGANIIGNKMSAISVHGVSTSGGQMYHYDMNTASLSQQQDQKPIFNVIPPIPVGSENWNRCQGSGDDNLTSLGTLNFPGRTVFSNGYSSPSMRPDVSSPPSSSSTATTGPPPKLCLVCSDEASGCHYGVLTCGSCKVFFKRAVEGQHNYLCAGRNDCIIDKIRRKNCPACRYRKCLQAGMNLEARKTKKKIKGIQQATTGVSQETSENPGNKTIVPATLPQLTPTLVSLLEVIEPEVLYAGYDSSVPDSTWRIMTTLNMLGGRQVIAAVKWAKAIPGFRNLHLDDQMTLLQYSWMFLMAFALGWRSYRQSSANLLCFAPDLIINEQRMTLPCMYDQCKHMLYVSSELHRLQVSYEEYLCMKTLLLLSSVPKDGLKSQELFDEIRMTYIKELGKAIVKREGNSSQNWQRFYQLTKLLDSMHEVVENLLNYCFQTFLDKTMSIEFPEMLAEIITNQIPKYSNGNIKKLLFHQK
The test is described as follows: Cotransfection assay, GR antagonist. As to conditions: read-out: GR Potency Antag.

The target of test [4] is T3, human PR. Description: Cotransfection assay, PR antagonist, CV-1 cells. To be noted: percent maximal response relative to reference antagonist.
Description: as §1, §2, §3

Description for hGR: as §1, §2, §3
Description for hMR: as §1, §2, §3

With `CC(C)C(=O)Nc1ccc([N+](=O)[O-])c(C(F)(F)F)c1` [Flut, reference compound], the IC50 on hMR and at hER [2] was over 10 µM each time. Moreover, the EC50 on hER [1] was over 10 µM; at human PR [3] (Table 2, read-out: PR Potency Agon), over 10 µM.
As for `CC(=O)S[C@@H]1CC2=CC(=O)CC[C@]2(C)[C@H]2CC[C@@]3(C)[C@@H](CC[C@@]34CCC(=O)O4)[C@H]12` [Spir, reference compound], the IC50 on hGR is 2 µM; at hER [2] it was over 10 µM. Besides, the EC50 on hER [1] is over 10 µM.
In the case of `CN(C)c1ccc([C@H]2C[C@]3(C)[C@@H](CC[C@]3(O)CCCO)[C@@H]3CCC4=CC(=O)CCC4=C32)cc1` [ZK299, reference compound], the “PR Antagonist CV-1 Cells Efficacy” value at human PR [4] is listed as 99%. The “PR Agonist CV-1 Cells Efficacy” value at human PR [3] was “na (key: na = not active (i.e. efficacy of <20 and potency of >10,000))”.
